Results as given in US20010025105A1, “Certain substituted 1-aryl-3-piperazine-1'-yl propanones” (Molecular Geriatarics Corporation, priority 1997, published 2001).

Assays:
Assay type in all cases: cell-based
[1] = test system: microtubule cytoskeleton of human CG neuroblastoma cells; experiment: Antimicrotubule activity, tubulin immunofluorescence microscopy; settings: 2 hr at 37° C., read-out: Concentration where microtubule destabilization occurs
[2] = test system: Candida albicans SRI 523; experiment: Agar disc diffusion assay; settings: 240 ug/disc, about 24 hr at 37° C.
Experimental: (§1) The activity of the compounds is determined using the following assay. The compound is dissolved in DMSO at a concentration of 6 mg/ml and then diluted with water to a final concentration of 3 mg/ml in 50% DMSO (% DMSO was shown not to be inhibitory to the test organisms). An aliquot (0.08 ml) of each drug solution was transferred to filter paper discs (12.7 mm diameter, Scmeicherand Schuell) for use in the agar diffusion assay. The concentration of each drug on the filter paper disc was 240 ug/disc. The test organisms included the following: Gram-positive aerobes (Staphylococcus aureus SRI 1323, Streptococcus pneumoniae SRI 1167); Gram-negative aerobe (Proteus vulgaris SRI 180); and the yeast Candida albicans SRI 523. An agar disc diffusion assay was used to evaluate the antimicrobial activity of the test compounds. Briefly, cultures were prepared from 16-20 hr agar slant cultures by inoculating in physiological saline to a turbidity equivalent to a #0.5 McFarland turbidity standard for the bacteria and a #3 McFarland standard for C. albicans. The surface of Mueller-Hinton agar (15×100 mm plates, mm) were evenly inoculated with each standardized culture using a cotton swab. Filter paper discs containing the drug concentration listed above were then placed on the inoculated agar plates along with a disc containing the solvent used to dissolve each drug. The plates were incubated at 37° C. for about 24 hr and the diameters of the zones of inhibition measured with a vernier caliper. Positive control drugs consisted of streptomycin for use with the bacterial strains and 5-fluorocytosine for use with C. albicans. The positive control drugs were assayed as described above for the compounds of the present invention using the same concentration.

[3] = test system: Proteus vulgaris SRI 180; experiment: Agar disc diffusion assay; settings: 240 ug/disc, about 24 hr at 37° C.; 0 = no measurable zone
Experimental: as §1

[4] = test system: Staphylococcus aureus SRI 1323; experiment: Agar disc diffusion assay; settings: 240 ug/disc, about 24 hr at 37° C.
Experimental: as §1

[5] = test system: Streptococcus pneumoniae SRI 1167; experiment: Agar disc diffusion assay; settings: 240 ug/disc, about 24 hr at 37° C.; + = zone too large to measure
Experimental: as §1

SMILES: Cl.Cl.O=C(CCN1CCN(Cc2ccccc2)CC1)c1ccc(F)c2ccccc12 [Example 21, 1-(4″-Fluoronaphth-1″-yl)-3-(4′-benzyl-1′-piperazinyl)-1-propanone dihydrochloride]
- minimal effective concentration [1]: 20 µM
- Diameter of the zone of inhibition, C. albicans [2]: 26.6 mm
- Diameter of the zone of inhibition, P. vulgaris [3]: 0^1 mm
- Diameter of the zone of inhibition, S. aureus [4]: 33.8 mm
- Diameter of the zone of inhibition, S. pneumoniae [5]: 40.7 mm
